Consider 2 compounds from US9388123B2, “LSD1-selective inhibitor having lysine structure” (KYOTO UNIVERSITY, priority 2012, dated 2016).

Structures can show the parent of a compound that is named as a salt.

Data set [1] concerns SH-SY5Y cells. Briefly: Cancer cell growth inhibition evaluation (MTT assay). Type of data set: cell-based. The settings on record: Homo sapiens, read-out: GI50 (μM) SH-SY5Y. The gist of the method:
(§1)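 HeLa and SH-SY5Y cells exposed to compound for 48 hours, then MTT added for 3 hours. Formazan dissolved in HCl–isopropanol and absorbance read at 560 nm to determine viable cells.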
Background: Formazan colour is commonly taken as a measure of viable cells.

In data set [2] the test system is HeLa cells. Described as above. The class given is cell-based. The settings on record: Homo sapiens, 48 h, read-out: GI50 (μM) HeLa. The gist of the method:
as §1

In data set [3] the test system is human leukemia cell lines. As to the kind of experiment: Leukemia cell growth inhibition evaluation, summary in words. Type of data set: cell-based. Conditions: Table 5. An excerpt: (§2) HL60, THP-1, K562, U937, KGla, HEL, and MDS-L were used as human leukemia cells. The cell lines are cell lines established from various subtypes such as acute myeloid leukemia, acute promyelocytic leukemia, acute monocytic leukemia, acute erythroid leukemia, and myelodysplastic syndromes, which progress to leukemia. Cells obtained by introducing leukemia fusion genes MLL/AF9, MLL/SEPT6, and MLL/ENL into the bone marrow of normal mice with a retrovirus so as to develop leukemia were used as murine leukemia cell lines.
(§3) This assay method involves, as a principle thereof, measuring an absorbance (a peak at from 450 nm to 490 nm) at the time of color development through a reaction of NADH, which is contained in the mitochondria of viable cells, and WST-8 to measure the amount of NADH. Specifically, the assay was performed by the following procedure.
(§4) The cells were plated at 50 μl, i.e., 5,000 cells per well in a 96-well microtiter plate. Next, a test compound dissolved in DMSO was mixed at various concentrations into the same medium, and 50 μl of each of the mixtures was added to each well. A medium was prepared so that the final concentration of the test compound was from 0 μM to 50 μM and so that the addition amount of DMSO was the same, and the cells were cultured in a CO2 incubator. On day 0 before the addition and on day 1, day 2, and day 3 after the addition, WST-8 reagent was added at 20 μl per well, and the cells were cultured for 1 hour in a CO2 incubator. After that, measurement was performed with ARVO X3 (manufactured by PerkinElmer).
(§5) Specifically, an absorbance at 450 nm was measured, an absorbance at 595 nm was measured in the same well, and the absorbance at 595 nm was subtracted from the absorbance at 450 nm to perform background correction for the well itself. Further, a well containing only a medium free of cells was subjected to the same measurement. A value in this case was also subtracted. Thus, the amount of viable cells was represented as a numerical value with correction of the influence of a medicament or a medium as well. Under a condition not containing the test compound (addition of only dimethyl sulfoxide), an exponential increase in number of viable cells on day 1, day 2, and day 3 in the stated order was confirmed.

For data set [4], the system named is murine leukemia cell lines. The data set is described as above. Conditions: Table 6. Type of data set: cell-based.
Description: as §2, §3, §4, §5

Data set [5] has as its system bone marrow cells of normal mice. As to the kind of experiment: Normal cell growth inhibition evaluation (colony forming ability in methylcellulose semi-solid medium). Type of data set: cell-based. The settings on record: 10 days culture, FIG. 1. An excerpt: In general, a semi-solid medium obtained by adding a cytokine involved in differentiation induction to a methylcellulose medium is used to evaluate a colony forming ability. Some of the bone marrow cells contain hematopoietic stem cells and precursor cells, which are sources of hematopoietic cells, and these cells can create a mass (called a colony) formed of several tens, several hundreds, and in some cases, several thousands of cells from a single cell on a semi-solid medium. The colony forming ability of the bone marrow cells may be evaluated by counting the number of the colonies. The colony forming ability in the semi-solid medium well reflects an actual supply ability and construction ability from the hematopoietic stem cells and precursor cells to the hematopoietic cells in vivo.
To 3 ml of MethoCult M3434 (methylcellulose-based semi-solid medium; StemCell Technologies; containing interleukin 3(IL-3), interleukin 6 (IL-6), erythropoietin (EPO), and stem cell factor (SCF)) were added 600,000 bone marrow cells of normal mice (suspended in 300 μl of IMDM medium), and the mixture was stirred well and plated at 1.1 ml per 3.5-cm culture dish. The cells were cultured under the conditions of 5% CO2 and 37° C. for 10 days in an incubator. A mass in which the number of cells was 50 or more was defined as a colony, and the number of colonies formed on each dish was counted.

In data set [6] the test system is KG1a. Briefly: Leukemia cell growth inhibition evaluation (WST-8). The class given is cell-based. The settings on record: Homo sapiens, KG-1a; day 3 (72-hour culture); read-out: Human leukemia cell line GI50 (μM) KG1a.
Description: as §2, §3, §4, §5

Data set [7] has as its system MLL/AF9 leukemia cell line. Briefly: Leukemia cell growth inhibition evaluation (WST-8). Type of data set: cell-based. The settings on record: Mus musculus, day 3 (72-hour culture), read-out: Mouse MLL-fusion leukemia cell line GI50 (μM) MLL/AF9.
Description: as §2, §3, §4, §5

Data set [8] deals with HL60. Briefly: Leukemia cell growth inhibition evaluation (WST-8). The settings on record: Homo sapiens, HL-60; day 3 (72-hour culture); read-out: Human leukemia cell line GI50 (μM) HL60. The class given is cell-based.
Description: as §2, §3, §4, §5

Data set [9] concerns U937. As to the kind of experiment: Leukemia cell growth inhibition evaluation (WST-8). Type of data set: cell-based. Conditions: Homo sapiens, U-937; day 3 (72-hour culture); read-out: Human leukemia cell line GI50 (μM) U937.
Description: as §2, §3, §4, §5

In data set [10] the target is T1, monoamine oxidase A (MAO-A) (Homo sapiens, UniProt P21397).
T1 construct: purchased Sigma-Aldrich
T1 sequence (P21397 1-527): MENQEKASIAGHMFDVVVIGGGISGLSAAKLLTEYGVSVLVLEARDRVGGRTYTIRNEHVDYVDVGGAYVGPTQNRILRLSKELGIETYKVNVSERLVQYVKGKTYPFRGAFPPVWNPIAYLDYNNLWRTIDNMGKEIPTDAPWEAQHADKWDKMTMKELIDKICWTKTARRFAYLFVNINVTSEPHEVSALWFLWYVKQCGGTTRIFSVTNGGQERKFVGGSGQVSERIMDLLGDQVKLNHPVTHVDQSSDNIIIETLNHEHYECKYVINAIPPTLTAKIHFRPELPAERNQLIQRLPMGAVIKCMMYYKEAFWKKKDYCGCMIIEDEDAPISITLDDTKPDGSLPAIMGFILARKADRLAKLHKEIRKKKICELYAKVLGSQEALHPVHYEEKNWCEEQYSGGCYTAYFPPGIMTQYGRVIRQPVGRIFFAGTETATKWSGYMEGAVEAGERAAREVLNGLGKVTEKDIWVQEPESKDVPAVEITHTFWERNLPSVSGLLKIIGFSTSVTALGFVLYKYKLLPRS
As to the kind of experiment: Monoamine oxidase inhibition test (MAO-Glo assay kit). Type of data set: biochemical. The settings on record: room temperature, 1 hour.
Description: To the reaction liquid was added 50 μL of a luciferin detection reagent, and the mixture was subjected to a reaction at room temperature for 20 minutes.

The mark [11] stands for this setting: at a concentration of up to 5 μM.

As for `O=C(N[C@@H](CCCCNC1CC1c1ccccc1)C(=O)NCc1ccccc1)c1ccc(-c2ccccc2)cc1` (stereo partly drawn) [Example 8, 2-[N-(4-Phenylbenzenecarbonyl)]amino-6-(trans-2-phenylcyclopropan-1-amino)-N-benzylhexanamide Hydrochloride], the GI50 in data set [1] is 4 µM; in data set [2] it was 11 µM; in data set [6], about 6.3 µM; in data set [7] it was under 2 µM; in data set [8] it was 4 to 5 µM; in [9], 4.6 µM. The “growth inhibitory / suppressing effect on the human leukemia cell lines (in words)” value in data set [3] is on record as “higher growth suppressing effects on the human leukemia cell lines than Comparative Example 2”. Also, the “growth inhibitory / suppressing effect on the murine leukemia cell lines (in words)” value in [4] was “very high growth suppressing effects”. Further, the colony forming ability entry in data set [5] (at 10 μM) is reported as “remarkably inhibited”; in [5] (setting [11]), “not inhibited”. Further, the IC50 (in general, the point on the concentration scale where inhibition reaches its midpoint) in [10] is 86 µM.
`O=C(N[C@@H](CCCCNC1CC1c1ccccc1)C(=O)NCc1cccc(C(F)(F)F)c1)c1ccc(-c2ccccc2)cc1` (stereo partly drawn) [Example 19, 2-[N-(4-Phenylbenzenecarbonyl)]amino-6-(trans-2-phenylcyclopropan-1-amino)-N-(3-trifluoromethylbenzyl)hexanamide Hydrochloride]: the GI50 in data set [1] was 2.9 µM; in data set [2], 4.3 µM; in data set [6], 5 to 10 µM; in data set [7] it was under 1.25 µM; in [8], 2.5 to 5 µM; in data set [9], 10 to 20 µM. Further, the “growth inhibitory / suppressing effect on the human leukemia cell lines (in words)” value in [3] is reported as “higher growth suppressing effects on the human leukemia cell lines than Comparative Example 2”. In addition, the “growth inhibitory / suppressing effect on the murine leukemia cell lines (in words)” value in [4] is given as “very high growth suppressing effects”. Also, the values for the colony forming ability result in [5] (at 10 μM) and in data set [5] (setting [11]) were “remarkably inhibited” and “not inhibited”, respectively. The IC50 in data set [10] is over 100 µM.
